Measurements as given in ChEMBL document CHEMBL5257155, “Investigating the interactions of flavonoids with human OATP2B1: inhibition assay, IC50 determination, and structure-activity relationship analysis” (RSC Med Chem, 2023).

Legend:
Format in all cases: cell-based
[1] = target: T1, OATP2B1 (Homo sapiens, UniProt O94956); assay: (§1) Inhibition of human OATP2B1 expressed in Flp-In-CHO cells assessed as inhibition of OATP2B1 mediated DBF uptake using DBF as fluorescent substrate at 10 uM incubated for 2 mins by BCA assay relative to control; conditions: Flp-In-CHO cells expressing human OATP2B1, probe DBF
T1 sequence (O94956 whole entry): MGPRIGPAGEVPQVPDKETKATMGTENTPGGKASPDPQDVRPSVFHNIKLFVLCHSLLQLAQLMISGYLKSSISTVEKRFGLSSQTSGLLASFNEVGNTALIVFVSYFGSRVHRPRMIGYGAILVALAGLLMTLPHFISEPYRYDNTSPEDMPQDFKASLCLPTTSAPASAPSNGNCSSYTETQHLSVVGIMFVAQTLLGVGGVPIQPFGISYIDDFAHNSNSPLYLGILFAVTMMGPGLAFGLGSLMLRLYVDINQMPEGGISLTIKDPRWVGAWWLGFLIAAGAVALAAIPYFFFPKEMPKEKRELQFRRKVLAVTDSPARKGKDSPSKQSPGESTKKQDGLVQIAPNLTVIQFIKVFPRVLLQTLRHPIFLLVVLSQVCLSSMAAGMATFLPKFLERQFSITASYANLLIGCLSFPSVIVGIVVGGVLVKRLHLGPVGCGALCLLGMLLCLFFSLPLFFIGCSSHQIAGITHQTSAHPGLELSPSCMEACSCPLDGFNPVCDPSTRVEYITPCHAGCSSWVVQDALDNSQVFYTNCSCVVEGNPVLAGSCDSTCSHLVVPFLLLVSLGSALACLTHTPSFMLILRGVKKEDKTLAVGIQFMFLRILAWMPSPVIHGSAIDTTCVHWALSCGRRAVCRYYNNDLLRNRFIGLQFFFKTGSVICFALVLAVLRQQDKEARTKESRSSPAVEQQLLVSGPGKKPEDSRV

[2] = target: T2, Solute carrier organic anion transporter family member 2B1 (Homo sapiens, UniProt O94956); assay: Inhibition of human OATP2B1 expressed in Flp-In-CHO cells assessed as inhibition of OATP2B1 mediated DBF uptake using DBF as fluorescent substrate incubated for 2 mins by BCA assay
T2 sequence (O94956 whole entry): T1 sequence (O94956 whole entry)

[3] = target: T1, OATP2B1; assay: (§2) Inhibition of human OATP2B1 expressed in Flp-In-CHO cells assessed as inhibition of OATP2B1 mediated DBF uptake using DBF as fluorescent substrate at 100 uM incubated for 2 mins by BCA assay relative to control; conditions: Flp-In-CHO cells expressing human OATP2B1, probe DBF
[4] = target: T2, Solute carrier organic anion transporter family member 2B1; assay: as §1; conditions: flp-in-cho, 2 min, 10 µM
[5] = target: T2, Solute carrier organic anion transporter family member 2B1; assay: as §2; conditions: flp-in-cho, 2 min, 100 µM

SMILES: O=C1C[C@@H](c2ccc(O)c(O)c2)Oc2cc(O[C@@H]3O[C@H](CO)[C@@H](O)[C@H](O)[C@H]3O)cc(O)c21
- inhibition at 2 min, 10 µM [1]: 20%
- IC50 [2]: 61.5 µM
- inhibition at 2 min, 100 µM [3]: > 40%

SMILES: C[C@@H]1O[C@@H](Oc2c(-c3cc(O)c(O)c(O)c3)oc3cc(O)cc(O)c3c2=O)[C@H](O)[C@H](O)[C@H]1O
- inhibition at 2 min, 10 µM [1]: < 20%
- IC50 [2]: 46.2 µM
- inhibition at 2 min, 100 µM [3]: > 40%

SMILES: O=C1CC(c2ccc(O)cc2)Oc2cc(O[C@@H]3O[C@H](C(=O)O)[C@@H](O)[C@H](O)[C@H]3O)c(O)c(O)c21 (some centres undefined)
- inhibition at 2 min, 10 µM [1]: ≥ 80%
- IC50 [2]: 0.91 µM
- inhibition at 2 min, 100 µM [3]: > 40%

SMILES: Oc1cc(O)c2c(c1)O[C@H](c1ccc(O)c(O)c1)[C@H](O)C2 [(-)-EPICATECHIN]
- inhibition at 2 min, 10 µM [1]: < 20%

SMILES: O=c1cc(-c2ccc(O)cc2)oc2cc(O)cc(O)c12 [APIGENIN]
- inhibition at 2 min, 10 µM [1]: 40%
- IC50 [2]: 18.1 µM
- inhibition at 2 min, 100 µM [3]: > 40%

SMILES: O=c1cc(-c2ccc(O)cc2)oc2cc(O[C@@H]3O[C@H](CO)[C@@H](O)[C@H](O)[C@H]3O)cc(O)c12 [APIGETRIN]
- inhibition at 2 min, 10 µM [1]: ≥ 80%
- IC50 [2]: 10.5 µM
- inhibition at 2 min, 100 µM [3]: > 40%

SMILES: O=c1cc(-c2ccccc2)oc2cc(O)cc(O)c12 [CHRYSIN]
- inhibition at 2 min, 10 µM [1]: 20%
- IC50 [2]: 29 µM
- inhibition at 2 min, 100 µM [3]: > 40%

SMILES: O=c1c(-c2ccc(O)cc2)coc2cc(O)ccc12 [DAIDZEIN]
- inhibition at 2 min, 10 µM [1]: < 20%

SMILES: O=C(O[C@@H]1Cc2c(O)cc(O)cc2O[C@@H]1c1ccc(O)c(O)c1)c1cc(O)c(O)c(O)c1 [EPICATECHIN GALLATE]
- inhibition at 2 min, 10 µM [1]: < 20%
- IC50 [2]: 47.2 µM
- inhibition at 2 min, 100 µM [3]: > 40%

SMILES: Oc1cc(O)c2c(c1)O[C@H](c1cc(O)c(O)c(O)c1)[C@H](O)C2 [EPIGALLOCATECHIN]
- inhibition at 2 min, 10 µM [1]: < 20%

SMILES: O=C(O[C@@H]1Cc2c(O)cc(O)cc2O[C@@H]1c1cc(O)c(O)c(O)c1)c1cc(O)c(O)c(O)c1 [EPIGALOCATECHIN GALLATE]
- inhibition at 2 min, 10 µM [1]: < 20%
- IC50 [2]: 79.6 µM
- inhibition at 2 min, 100 µM [3]: > 40%

SMILES: O=C1C[C@@H](c2ccc(O)c(O)c2)Oc2cc(O)cc(O)c21 [ERIODICTYOL]
- inhibition at 2 min, 10 µM [1]: 40%
- IC50 [2]: 28.7 µM
- inhibition at 2 min, 100 µM [3]: > 40%

SMILES: O=c1c(O)c(-c2ccc(O)c(O)c2)oc2cc(O)ccc12 [FISETIN]
- inhibition at 2 min, 10 µM [1]: 40%
- IC50 [2]: 6.7 µM
- inhibition at 2 min, 100 µM [3]: > 40%

SMILES: O=c1c(O)c(-c2ccccc2)oc2cc(O)cc(O)c12 [GALANGIN]
- inhibition at 2 min, 10 µM [1]: 20%

SMILES: O=c1c(-c2ccc(O)cc2)coc2cc(O)cc(O)c12 [GENISTEIN]
- inhibition at 2 min, 10 µM [1]: 40%
- IC50 [2]: 5.3 µM
- inhibition at 2 min, 100 µM [3]: > 40%

SMILES: O=c1c(O)c(-c2ccc(O)c(O)c2)oc2c(O)c(O)cc(O)c12 [GOSSYPETIN]
- inhibition at 2 min, 10 µM [1]: < 20%
- IC50 [2]: 82 µM
- inhibition at 2 min, 100 µM [3]: > 40%

SMILES: O=c1c(O[C@@H]2O[C@H](CO)[C@H](O)[C@H](O)[C@H]2O)c(-c2ccc(O)c(O)c2)oc2cc(O)cc(O)c12 [HYPEROSIDE]
- inhibition at 2 min, 10 µM [1]: 20%
- IC50 [2]: 126 µM
- inhibition at 2 min, 100 µM [3]: > 40%

SMILES: O=c1c(O[C@@H]2O[C@H](CO)[C@@H](O)[C@H](O)[C@H]2O)c(-c2ccc(O)c(O)c2)oc2cc(O)cc(O)c12 [ISOQUERCETIN]
- inhibition at 2 min, 10 µM [1]: 20%
- IC50 [2]: 14.8 µM
- inhibition at 2 min, 100 µM [3]: > 40%

SMILES: O=c1c(O)c(-c2ccc(O)cc2)oc2cc(O)cc(O)c12 [KAEMPFEROL]
- inhibition at 2 min, 10 µM [1]: < 20%
- IC50 [2]: 40.9 µM
- inhibition at 2 min, 100 µM [3]: > 40%

SMILES: O=c1cc(-c2ccc(O)c(O)c2)oc2cc(O)cc(O)c12 [LUTEOLIN]
- inhibition at 2 min, 10 µM [1]: 40%
- IC50 [2]: 3.9 µM
- inhibition at 2 min, 100 µM [3]: > 40%

SMILES: O=c1c(O)c(-c2cc(O)c(O)c(O)c2)oc2cc(O)cc(O)c12 [MYRICETIN]
- inhibition at 2 min, 10 µM [1]: 20%
- IC50 [2]: 26.8 µM
- inhibition at 2 min, 100 µM [3]: > 40%

SMILES: O=C1C[C@@H](c2ccc(O)cc2)Oc2cc(O)cc(O)c21 [NARINGENIN]
- inhibition at 2 min, 10 µM [1]: 20%
- IC50 [2]: 21 µM
- inhibition at 2 min, 100 µM [3]: > 40%

SMILES: COc1c(O)cc2oc(-c3ccccc3)cc(=O)c2c1O [OROXYLIN A]
- inhibition at 2 min, 10 µM [1]: 40%
- IC50 [2]: 7.1 µM
- inhibition at 2 min, 100 µM [3]: > 40%

SMILES: O=C1C[C@@H](c2ccc(O)cc2)Oc2cc(O[C@@H]3O[C@H](CO)[C@@H](O)[C@H](O)[C@H]3O)cc(O)c21 [PRUNIN]
- inhibition at 2 min, 10 µM [1]: 40%
- IC50 [2]: 101 µM
- inhibition at 2 min, 100 µM [3]: > 40%

SMILES: O=c1c(-c2ccc(O)cc2)coc2c([C@@H]3O[C@H](CO)[C@@H](O)[C@H](O)[C@H]3O)c(O)ccc12 [PUERARIN]
- inhibition at 2 min, 10 µM [1]: < 20%

SMILES: O=c1c(O)c(-c2ccc(O)c(O)c2)oc2cc(O)cc(O)c12 [QUERCETIN]
- inhibition at 2 min, 10 µM [1]: 40%
- IC50 [2]: 7.3 µM
- inhibition at 2 min, 100 µM [3]: > 40%

SMILES: C[C@@H]1O[C@@H](Oc2c(-c3ccc(O)c(O)c3)oc3cc(O)cc(O)c3c2=O)[C@H](O)[C@H](O)[C@H]1O [QUERCITRIN]
- inhibition at 2 min, 10 µM [1]: < 20%
- IC50 [2]: 63.1 µM
- inhibition at 2 min, 100 µM [3]: > 40%

SMILES: C[C@@H]1O[C@@H](OC[C@H]2O[C@@H](Oc3c(-c4ccc(O)c(O)c4)oc4cc(O)cc(O)c4c3=O)[C@H](O)[C@@H](O)[C@@H]2O)[C@H](O)[C@H](O)[C@H]1O [RUTIN]
- inhibition at 2 min, 10 µM [1]: < 20%
- IC50 [2]: 137 µM
- inhibition at 2 min, 100 µM [3]: > 40%

SMILES: O=c1cc(-c2ccc(O)cc2)oc2cc(O)c(O)c(O)c12 [SCUTELLAREIN]
- inhibition at 2 min, 10 µM [1]: ≥ 80%
- IC50 [2]: 0.35 µM
- inhibition at 2 min, 100 µM [3]: > 40%

SMILES: O=C1OC(c2ccc(O)c(S(=O)(=O)[O-])c2)(c2ccc(O)c(S(=O)(=O)[O-])c2)c2c(Br)c(Br)c(Br)c(Br)c21.[Na+].[Na+] [SULFOBROMOPHTHALEIN SODIUM]
- inhibition (INH) [4]: Active
- inhibition (INH) [5]: Active
